Assay results published in PubChem BioAssay AID1963870 (Molecular Pharmacology Branch, DTP, NCI, 2024).

Tested on: 292921-168-R-J2-PDC KRAS tumor spheroid viability
Assay: Anticancer human tumor 292921-168-R-J2-PDC patient-derived pancreatic carcinoma cell line growth inhibition [KRAS2]
Conditions: spheroids with HUVEC and MSC; for IC50: curve of first compound; for viability, T/C: stronger effect = lower value
Procedure, shortened: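 KRAS-mutant tumor cells were grown as spheroids with HUVEC endothelial cells and human MSCs as stroma. Targeted agents were tested alone and with KRAS pathway inhibitors. Doses started at or near clinical Cmax, or 10 microM, descending half-log.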

[1] = second compound 0.1 µM, first compound 0.0316 µM
[2] = second compound 0.1 µM, first compound 0.1 µM
[3] = second compound 0.1 µM, first compound 0.316 µM
[4] = second compound 0.1 µM, first compound 1 µM
[5] = second compound 0.1 µM, first compound 3.16 µM
[6] = second compound 0.316 µM, first compound 0.0316 µM
[7] = second compound 0.316 µM, first compound 0.1 µM
[8] = second compound 0.316 µM, first compound 0.316 µM
[9] = second compound 0.316 µM, first compound 1 µM
[10] = second compound 0.316 µM, first compound 3.16 µM
[11] = second compound 1 µM, first compound 0.0316 µM
[12] = second compound 1 µM, first compound 0.1 µM
[13] = second compound 1 µM, first compound 0.316 µM
[14] = second compound 1 µM, first compound 1 µM
[15] = second compound 1 µM, first compound 3.16 µM
[16] = second compound 3.16 µM, first compound 0.0316 µM
[17] = second compound 3.16 µM, first compound 0.1 µM
[18] = second compound 3.16 µM, first compound 0.316 µM
[19] = second compound 3.16 µM, first compound 1 µM
[20] = second compound 3.16 µM, first compound 3.16 µM
[21] = second compound 10 µM, first compound 0.0316 µM
[22] = second compound 10 µM, first compound 0.1 µM
[23] = second compound 10 µM, first compound 0.316 µM
[24] = second compound 10 µM, first compound 1 µM
[25] = second compound 10 µM, first compound 3.16 µM
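Note: drug exposure lasted seven days after spheroids formed for three days.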
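Throughout, for viability, T/C: percent of DMSO vehicle control viability which is 100%.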

| Structure (SMILES) | IC50 (second compound 0.1 µM) | IC50 (second compound 0.316 µM) | IC50 (second compound 1 µM) | IC50 (second compound 3.16 µM) | IC50 (second compound 10 µM) | viability, T/C [1] | viability, T/C [2] | viability, T/C [3] | viability, T/C [4] | viability, T/C [5] | viability, T/C [6] | viability, T/C [7] | viability, T/C [8] | viability, T/C [9] | viability, T/C [10] | viability, T/C [11] | viability, T/C [12] | viability, T/C [13] | viability, T/C [14] | viability, T/C [15] | further results |
| --- | --- | --- | --- | --- | --- | --- | --- | --- | --- | --- | --- | --- | --- | --- | --- | --- | --- | --- | --- | --- | --- |
| CC(=O)OC12COC1CC(O)C1(C)C(=O)C(O)C3=C(C)C(OC(=O)C(O)C(NC(=O)OC(C)(C)C)c4ccccc4)CC(O)(C(OC(=O)c4ccccc4)C21)C3(C)C (stereo not given) + COc1cc2nc(C)nc(NC(C)c3cc(N)cc(C(F)(F)F)c3)c2cc1OC1CCOC1 | < 0.01 µM | < 0.01 µM | < 0.01 µM | < 0.01 µM | < 0.01 µM | 15.2% | 10.7% | 12.1% | 14% | 19% | 14.7% | 10.9% | 12.6% | 14.7% | 18.8% | 16.2% | 13.6% | 10.9% | 16.1% | 18.9% | viability, T/C (second compound 0.1 µM, first compound 0.01 µM): 13.7%; viability, T/C (second compound 0.316 µM, first compound 0.01 µM): 13.7%; viability, T/C (second compound 1 µM, first compound 0.01 µM): 13.3%; viability, T/C (second compound 3.16 µM, first compound 0.01 µM): 12.1%; viability, T/C [16]: 13.4%; viability, T/C [17]: 11.2%; viability, T/C [18]: 11.4%; viability, T/C [19]: 14.1%; viability, T/C [20]: 18.7%; viability, T/C (second compound 10 µM, first compound 0.01 µM): 13.5%; viability, T/C [21]: 13.3%; viability, T/C [22]: 14%; viability, T/C [23]: 12.8%; viability, T/C [24]: 11.9%; viability, T/C [25]: 13.2% |
| CC1(C)CCC(CN2CCN(c3ccc(C(=O)NS(=O)(=O)c4ccc(NCC5CCOCC5)c([N+](=O)[O-])c4)c(Oc4cnc5[nH]ccc5c4)c3)CC2)=C(c2ccc(Cl)cc2)C1 + C=CC(=O)N1CCN(c2nc(=O)n(-c3c(C)ccnc3C(C)C)c3nc(-c4c(O)cccc4F)c(F)cc23)C(C)C1 | 2.27 µM | 2.19 µM | 2.02 µM | 1.26 µM | < 0.0316 µM | 107% | 107% | 106% | 100% | 29.5% | 108% | 111% | 94.3% | 114% | 23.6% | 113% | 106% | 102% | 99.5% | 18.6% | viability, T/C (second compound 0.1 µM, first compound 10 µM): 8.37%; viability, T/C (second compound 0.316 µM, first compound 10 µM): 8.55%; viability, T/C (second compound 1 µM, first compound 10 µM): 9.16%; viability, T/C [16]: 81.5%; viability, T/C [17]: 80.8%; viability, T/C [18]: 67.8%; viability, T/C [19]: 59.8%; viability, T/C [20]: 13.9%; viability, T/C (second compound 3.16 µM, first compound 10 µM): 10.9%; viability, T/C [21]: 28.4%; viability, T/C [22]: 18.8%; viability, T/C [23]: 21.6%; viability, T/C [24]: 20.5%; viability, T/C [25]: 7.43%; viability, T/C (second compound 10 µM, first compound 10 µM): 8.6% |
